A melting point compilation (Tetko et al.; mined from patent text by program, amines drawn as free bases though some values may be those of a salt)

Point of comparison: `FC(F)(F)c1cc(-c2ccc(Cl)cc2)nc2c(-c3cccnc3)cnn12`, melting point 188 °C. Against it:
- Cc1cc(Cl)cc(COc2cccc(OCc3ccc4ccccc4n3)c2)c1OCc1nnn[nH]1 — lower, 181 to 184 °C
- N#Cc1ccc(C2=NOC3(CCN(C(=O)CCC(=O)O)CC3)C2)cc1 — lower, 167 to 170 °C
- Cc1cc2cc(O)ccc2c(Oc2ccc(/C=C/C(=O)O)cc2)c1-c1ccc(O)cc1 — lower, 162 to 164 °C
- Clc1ccc2c(c1)CCc1cccnc1C2=C1CCN(Cc2ccc(Cl)nc2)CC1 — lower, 76.2 to 81.7 °C
- O=C(c1ccccc1SSc1ccccc1C(=O)N1CCC(O)C1)N1CCC(O)C1 (centres undefined) — lower, 168 to 172 °C
- CCn1nc(-c2ccccc2)c(C(=O)OCC(=O)OCc2ccccc2)c(Nc2cnccc2C)c1=O — lower, 115 to 116 °C
- CS(=O)(=O)c1ccc(-c2ccccc2Cc2cccc(F)c2)cc1 — lower, 97 to 98 °C
- COc1ccc(OCC#N)c(SCC#N)c1 — lower, 53 to 54 °C
- COc1ccccc1CCNC(=O)c1ccc2c(c1)C=CC(C)(C)O2 — lower, 125 to 130 °C
- C=CCOc1cc(C=CNC(=O)OC)ccc1OCC(O)CNC(C)C (centres undefined) — lower, 91 to 92 °C
- CC(C)(C)OC(=O)c1nc(-c2ccccc2)[nH]c1-c1cnccn1 — higher, 196 to 197 °C
- O=C(O)c1cnc(-c2ccc(OCc3ccccc3)cc2)nc1 — higher, 299 °C
- CC(C)Sc1nc(-n2ccnc2)c(I)c(C(F)(F)F)n1 — lower, 118 to 120 °C
- Cc1ccc2c(c1)c1c(n2C(=O)c2ccccc2)CCC(C(=O)O)C1 (centres undefined) — higher, 200 to 202 °C
- NC(=O)c1c(C(=O)O)cnn1-c1cccc(Cl)c1 — higher, 223 to 225 °C
- CC(C)(C)[Si](C)(C)OCCn1nc(C=O)cc1C=O — lower, 63 to 64 °C
- COc1nc(C)nc(NC(=O)NS(=O)(=O)c2cccnc2OC2CCCC2)n1 — lower, 170 to 172 °C
- CN(C)CC(=O)NCc1ccc(-c2cc3c(Nc4ccc(F)c(Cl)c4)ncnc3[nH]2)cc1 — higher, 320 to 325 °C
- Cn1cnc([N+](=O)[O-])c1Oc1ccccc1 — lower, 116 to 118 °C
- CC(C)(Cn1c(CO)nc2c(N)nc3ccccc3c21)CS(C)(=O)=O — higher, 230 to 232 °C
- COc1ccc(C2=NN(c3ccc(C4=NNC(=O)CC4C)cc3)C(=O)C3CC=CCC23)cc1OC (centres undefined) — higher, 192 to 194 °C
- COc1cc2c(cc1OC)/C(=N/OCc1ccc([N+](=O)[O-])cc1)CCC2 — lower, 124 to 127 °C
- O=C1CCN(C(=O)C(F)(F)F)c2ccccc2CN1 — higher, 218 to 219 °C
- CCN(C=O)c1ccccc1C(=O)COC(=O)c1ccccc1 — lower, 78 to 80 °C
- O=C(Sc1ccccn1)c1ccc(I)cc1 — lower, 127 °C
- COc1ccc(Cl)c(C(N)=O)c1F — lower, 154 to 156 °C
- O=c1[nH]c2ccccc2cc1CN1CC=C(/C=C/c2ccccc2)CC1 — higher, 258 to 260 °C
- Cc1nc(C=Cc2nc3ccc(F)cc3c(=O)n2-c2ccccc2Cl)cs1 — higher, 231 to 232 °C
- CC(=O)OC1OC(C)C(OCc2ccccc2)C(OCc2ccccc2)C1OCc1ccccc1 (centres undefined) — lower, 86 to 87.5 °C
- Cc1c(-c2ncc(Cl)cc2F)nn(C)c1C#N — lower, 144 to 146 °C
- CCCC(=O)c1ccc(C(=O)O)cn1 — lower, 128 to 130 °C
- Nc1nc[nH]c(=O)c1O — higher, > 300 °C
- O=C(Nc1ccccc1)N1CCC(CN2CCc3c([nH]c4ccccc34)C2)CC1 — higher, 207 to 209 °C
- c1ccc(CN[C@H]2CCCN[C@H]2c2ccc(-c3ccccc3)cc2)cc1 (relative stereo) — higher, > 268 °C
- CN1CCNC(=O)C1c1ccc([N+](=O)[O-])cc1 (centres undefined) — lower, 185 to 186 °C
- CCC1(CCO)OCCc2c1[nH]c1c(C)cccc21 (centres undefined) — lower, 68 °C
- Cc1ccc(-c2nc(COc3ccc(CCCn4ccnc4)cc3)cs2)s1 — lower, 78 to 79 °C
- Cn1nc(C(=O)NCc2ccc(Cl)cc2)c(=O)c2cc(I)ccc21 — higher, 194 to 195 °C
- Cn1c(-c2nnc3ccc(NC=O)nn23)cnc1[N+](=O)[O-] — higher, 224 to 226 °C
- CC(=O)N1N=C(c2ccncc2)OC1c1ccc(Cl)c([N+](=O)[O-])c1 (centres undefined) — lower, 122 °C
- COC(=O)c1ccc(CN(Cc2cc(Br)ccc2OCc2ccccc2)c2ccc(C(=O)OC(C)(C)C)cc2)cc1 — lower, 154 to 155 °C
- COC(=O)c1cc(F)c(Cl)nc1Nc1ccc(F)cc1F — lower, 137 to 139 °C
- O=[N+]([O-])c1ccc(Oc2ccc3ccc(Oc4ccc([N+](=O)[O-])c(O)c4)cc3c2)cc1O — higher, 218 to 220 °C
- CCOC(=O)c1c(S(=O)c2ccccc2)n(C2CC2)c2c(F)c(F)c(F)cc2c1=O (centres undefined) — higher, 190 to 191 °C
- NC(=O)[C@@H]1[C@H](Nc2c(Br)cnc3[nH]c(-c4cccc(CN5CCOCC5)c4)nc23)[C@H]2C=C[C@@H]1C2 — lower, 184 to 185 °C
- CO[C@@H](Cc1ccc(C#CCOc2ccc(-c3ccccc3)cc2)cc1)C(=O)O — lower, 111 to 112 °C
- CC(C)n1nc(-c2sc(NC(=O)COc3ccccc3)nc2-c2ccccc2)ccc1=O — higher, 243 to 244 °C
- Nc1nc2c([nH]c(=S)n2Cc2cccs2)c(=O)[nH]1 — higher, > 280 °C
- O=C(NC1CCNC1=O)c1cccc(-c2cccc3oc(Cc4cccc(C(F)(F)F)c4)cc23)c1 (centres undefined) — lower, 110 to 120 °C
- CC1CCc2c(N3CCN(C)CC3)c(F)cc3c(=O)c(C(=O)O)cn1c23 (centres undefined) — higher, 262 to 263 °C
- O=C(O)C1=Cc2cc(Cl)ccc2N(Cc2ccc(C(F)(F)F)cc2)C1C(F)(F)F (centres undefined) — higher, 229 to 231 °C
- CCCc1nc2c(N)nc3ccccc3c2n1CC(C)(C)CC(C)=O — lower, 178 to 180 °C
- O=C(O)c1ccc2oc(Cc3cccnc3)cc2c1 — higher, 197 to 198 °C
- CCOC(=O)c1c(OC(=O)CCl)c2ccccc2c2nc3ccccc3nc12 — higher, 208 to 209 °C
- Cc1csc(C(C)(O)c2nc(C)cs2)n1 — lower, 82 to 84 °C
- CC1(C)OC(=C(C#N)C#N)C(C#N)=C1C=Cc1c(F)c(F)c(N2C3C4CCC(C4)C32)c(F)c1F (centres undefined) — higher, 233 °C
- O=C(O)c1cccc(-c2nnc(-c3ccc(C(F)(F)F)cc3)o2)c1 — higher, 239 to 240 °C
- COC(=O)c1cncn1C1c2ccccc2C(F)(F)C1(C)C (centres undefined) — lower, 96 to 97 °C
- Clc1nc(NCc2cccc(I)c2)c2ncn(C3CCCO3)c2n1 (centres undefined) — lower, 180 to 182 °C
- O=C(Nc1ccccc1)c1cnc2c(C(F)(F)F)cccc2c1-c1ccccc1 — higher, 207 to 208 °C
- CCOc1nn(-c2c(Cl)cc(C(F)(F)F)cc2Cl)c(N)c1C(=O)c1cccc(C(F)(F)F)c1 — lower, 77 to 78 °C
- CSc1ccc(-c2nn(Cc3cccnc3)c(=O)cc2-c2ccc(Cl)cc2)cc1 — lower, 148 °C
- CCCCCCCCCCCCCCCCCCOc1cc(C(=O)O)cc(N(CC(=O)O)CC(=O)O)c1 — lower, 149 to 155 °C
- C#CCOc1cc(C(=O)OC)ccc1F — lower, 60.5 to 61.5 °C
- Cc1ccc(S(=O)(=O)OCC(=O)C(=NO)C(=O)OC(C)(C)C)cc1 — lower, 106 to 108 °C
- COC(=O)c1ccc2c(c1)C(S(=O)(=O)c1ccccc1)CC(=O)CO2 (centres undefined) — lower, 128 to 130 °C
- CCOC[C@@H]1CNCC[C@@H]1c1ccc(Cl)c(Cl)c1 — lower, 68 to 70 °C
- CCOc1cc2cc(OC)c(OC)cc2c(Cc2ccc(OC)c(OC)c2)n1 — lower, 110 to 112 °C
- N#Cc1cc(C(=O)Nc2ccc(Cl)cn2)nc(C(F)(F)F)c1 — higher, 208 °C
- NC(=O)c1c(Cl)c(Cl)c(Cl)c(Cl)c1C(=O)O — lower, 113 to 114 °C
- CN(C)CCNS(=O)(=O)c1cccc(NC(=O)c2cnn3c(C(F)(F)F)cc(-c4ccc(C(F)(F)F)cc4)nc23)c1 — higher, 224 °C
- Cc1ccc(Oc2cccc(C#CC(C)N(O)C(N)=O)c2)cc1F (centres undefined) — lower, 128 to 130 °C
- CNS(=O)(=O)c1ccccc1Nc1nc(Nc2ccc3c(c2)COCCN3C)ncc1Cl — lower, 163 to 164 °C
- CC(=C1SC(=O)NC1=O)c1ccc(OCCCOc2c(-c3ccc(F)cc3)n(C)c3ccccc3c2=O)cc1 — higher, 262 to 264 °C
- CC(C=O)C(C(=O)O)c1ccc(Cl)c(Cl)c1 (centres undefined) — lower, 124 to 126 °C
- C#CCOc1cc(-n2nc(CC)c(CC)c2CC)c(F)cc1Cl — lower, 62 to 65 °C
- O=[N+]([O-])c1ccccc1SNc1nc(OCc2ccc(F)cc2)ncc1F — lower, 184 °C
- Cc1nc(N2C[C@@H](C)N(Cc3cc(F)cc(F)c3)C2=O)sc1C(N)=O — higher, 212 to 213 °C
- CCOC(=O)c1c(-c2ccccc2)n(-c2ccc(OC)cc2)c2ccccc2c1=O — higher, 246 to 247 °C
- Cc1sc(C(=O)OCc2ccc3c(c2)OCO3)cc1NC(=O)NCc1ccccc1 — higher, 216 to 217 °C
- CC(C)(C)OC(=O)N1CCC(c2cc(F)c3oc(-c4ccc(S(C)(=O)=O)cc4F)nc3c2)CC1 — not separable, 188 to 192 °C
- COc1ccc(-c2cc(S(C)(=O)=O)nnc2-c2ccc(OC)cc2)cc1 — lower, 137 to 140 °C
- CC(C)Nc1cc(Cl)nnc1NN — lower, 132 to 135 °C
- COc1ccc(OC)c(P(=O)(C(=O)c2c(C)cc(C)cc2C)C(=O)c2c(C)cc(C)cc2C)c1 — lower, 161 °C
- Cc1nc(-c2ccc(C(F)(F)F)cc2)oc1CSc1ccc(CC(=O)O)cc1 — lower, 135 to 136 °C
- COC1=CC(=O)C2=C(C1=O)C1C=CC2C1 (centres undefined) — lower, 117 to 118 °C
- Nc1cc2c(cc1[N+](=O)[O-])CC(CCO)C2 (centres undefined) — lower, 89 to 91 °C
- Cc1cc(C)nc(N=S(C)C)n1 — lower, 117 to 120 °C
- OC1(C(c2ccccc2)c2ccccc2)CSC2=NCCCCN21 (centres undefined) — lower, 123 to 125 °C
- Cc1cc(-c2ccc(C(F)(F)F)cc2)cnc1N=CN(C)C — lower, 74 °C
- O=C1CC(=O)NC(c2ccc(Cl)cc2)=N1 — lower, 120 to 121 °C
- CCC12CCC3=C(CCc4cc(OC)ccc43)C1=CCC2=O (centres undefined) — lower, 77 to 80 °C
- O=C(NC(=NCCCc1c[nH]cn1)NCC(O)COc1ccccc1)c1ccccc1 (centres undefined) — lower, 129 °C
- c1ccc(C2CSC(c3ccccc3)N2)cc1 (mixture of isomers) — lower, 120 °C
- CCN(CC)c1ccc([N+](=O)[O-])cc1C#N — lower, 83 to 85 °C
- CC(C)c1ccc(N(Cc2ccc(N(C)C)cc2)C(=O)C2CCOc3cc(O)ccc32)cc1 (centres undefined) — lower, 173 °C
- CC1=NC(NC(=O)Nc2cccc(C)c2)C(=O)N(CC(=O)C2CCCCC2)c2c(C)cccc21 (centres undefined) — lower, 179 to 181 °C
- Nc1ncc(C(=O)NCc2ccc(C(F)(F)F)cc2)c(N2CCCC2)n1 — higher, 227 to 228 °C
